This is an account of results in patent publication US10323022B2, “Pyrrolidinyl urea, pyrrolidinyl thiourea and pyrrolidinyl guanidine compounds as TrkA kinase inhibitors” (Array BioPharma Inc., priority 2011, dated 2019).

Usually IC50 stands for the concentration that inhibits the measured activity by half. High values mean lower potency, low ones higher potency.

In this assay the target is TrkA (Homo sapiens (Human), UniProt P04629). As to the kind of experiment: TrkA Omnia Assay. The class given is biochemical. The conditions noted are these: averaged IC50; 20 nM enzyme, 500 μM ATP, 10 μM peptide substrate. The method, boiled down: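 Recombinant TrkA (20 nM) preincubated 10 min at ambient temperature with compound, then Omnia Tyr Peptide #4 (10 μM) and ATP (500 μM) added in 25 mM MOPS pH 7.5, 5 mM MgCl2, 0.005% Triton X-100. Fluorescence (ex 360/em 485 nm) followed continuously for 70 min; IC50 from initial rates by 4- or 5-parameter logistic fit.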
Chain of TrkA (P04629 33-796): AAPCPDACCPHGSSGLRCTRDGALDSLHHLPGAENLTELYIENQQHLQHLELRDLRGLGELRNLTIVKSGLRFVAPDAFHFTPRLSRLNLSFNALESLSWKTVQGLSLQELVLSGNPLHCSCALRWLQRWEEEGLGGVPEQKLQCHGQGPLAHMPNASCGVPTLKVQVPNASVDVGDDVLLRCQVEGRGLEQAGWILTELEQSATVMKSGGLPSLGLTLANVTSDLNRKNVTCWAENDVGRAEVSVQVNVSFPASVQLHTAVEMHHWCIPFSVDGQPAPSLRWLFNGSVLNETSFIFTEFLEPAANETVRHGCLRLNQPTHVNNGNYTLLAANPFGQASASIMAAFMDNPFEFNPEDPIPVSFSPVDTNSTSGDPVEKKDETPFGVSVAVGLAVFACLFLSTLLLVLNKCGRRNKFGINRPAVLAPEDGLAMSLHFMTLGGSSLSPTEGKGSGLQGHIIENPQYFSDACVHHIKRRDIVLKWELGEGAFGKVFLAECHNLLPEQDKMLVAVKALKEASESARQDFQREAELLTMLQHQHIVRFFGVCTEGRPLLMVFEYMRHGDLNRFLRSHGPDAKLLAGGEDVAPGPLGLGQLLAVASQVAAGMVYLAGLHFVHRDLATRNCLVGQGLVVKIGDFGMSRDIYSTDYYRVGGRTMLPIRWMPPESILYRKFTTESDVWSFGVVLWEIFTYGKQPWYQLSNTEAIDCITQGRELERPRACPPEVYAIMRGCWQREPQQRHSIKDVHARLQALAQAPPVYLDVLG
Consider `COCCN1C[C@@H](NC(=O)Nc2c(C)c(-c3cnn(C(OCC(F)(F)F)C(F)(F)F)c3)nn2-c2ccccc2)[C@H](c2ccc(F)c(F)c2)C1` (stereo partly drawn) [Example 498, 1-((3S,4R)-4-(3,4-difluorophenyvl)-1-(2-methoxyethyl)pyrrolidin-3-yl)-3-(4-methyl-1-phenyl-1′-(2,2,2-trifluoro-1-(2,2,2-trifluoroethoxy)ethyl)-1H,1′H-[3,4′-bipyrazol]-5-yl)urea], for which the IC50 was below 0.1 µM.
Molecule `COCCN1C[C@@H](NC(=O)Nc2c(C(N)=O)c(C)nn2-c2ccccc2)[C@H](c2ccc(F)c(Cl)c2)C1` (relative stereo) [Example 623, 5-(3-((trans)-4-(3-chloro-4-fluorophenyl)-1-(2-methoxyethyl)pyrrolidin-3-yl)ureido)-3-methyl-1-phenyl-1H-pyrazole-4-carboxamide] showed an IC50 below 0.1 µM.
The value for `COCCN1C[C@@H](NC(=O)Nc2c(C)c(C(C)(C)CO)nn2-c2ccccc2)[C@H](c2ccccc2)C1` [Example 117, 1-(3-(1-hydroxy-2-methylpropan-2-yl)-4-methyl-1-phenyl-1H-pyrazol-5-yl)-3-((3S,4R)-1-(2-methoxyethyl)-4-phenylpyrrolidin-3-yl) urea] was below 0.1 µM.
The value for `CCn1cc(-c2nn(-c3ccccc3)c(NC(=O)N[C@@H]3CN(CCOC)C[C@H]3c3ccc(F)c(F)c3)c2C)cn1` [Example 523, 1-((3S,4R)-4-(3,4-difluorophenyl)-1-(2-methoxyethyl)pyrrolidin-3-yl)-3-(1′-ethyl-4-methyl-1-phenyl-1H, 1′H-[3,4′-bipyrazol]-5-yl)urea] was below 0.1 µM; that for `COCCN1C[C@@H](NC(=O)Nc2cc(-c3ccccc3)nn2C)[C@H](c2ccccc2)C1` (relative stereo) [Example 13, 1-(trans-1-(2-methoxyethyl)-4-phenylpyrrolidin-3-yl)-3-(1-methyl-3-phenyl-1H-pyrazol-5-yl)urea] was below 0.1 µM.
The value for `COCCOc1ccc(-c2cc(NC(=O)N[C@@H]3CN(CCOC)C[C@H]3c3ccc(F)c(F)c3)n(C)n2)cc1` [Example 130, 1-((3S,4R)-4-(3,4-difluorophenyl)-1-(2-methoxyethyl)pyrrolidin-3-yl)-3-(3-(4-(2-methoxyethoxy)phenyl)-1-methyl-1H-pyrazol-5-yl)urea] was below 0.1 µM; that for `CCOc1nn(-c2ccccc2)c(NC(=O)N[C@@H]2CN([C@@H](COC)C(F)(F)F)C[C@H]2c2ccc(F)c(F)c2)c1C` [Example 276, 1-((3S,4R)-4-(3,4-difluorophenyl)-1-((S)-1,1,1-trifluoro-3-methoxypropan-2-yl)pyrrolidin-3-yl)-3-(3-ethoxv-4-methyl-1-phenyl-1H-pyrazol-5-yl)urea] was below 0.1 µM.
Consider `COCCN1C[C@@H](NC(=O)Nc2c(C)c(-c3cnn(C)c3)nn2-c2cncc(C)c2)[C@H](c2ccc(F)c(F)c2)C1` [Example 496, 1-((3S,4R)-4-(3,4-difluorophenyvl)-1-(2-methoxyethyl)pyrrolidin-3-yl)-3-(1′,4-dimethyl-1-(5-methylpyridin-3-yl)-1H, 1′H-[3,4′-bipyrazol]-5-yl)urea], for which the IC50 lay within 0.1 to 1 µM.
In turn, `COCCN1C[C@@H](NC(=O)Nc2cc(-c3ccc(F)cc3)nn2C)[C@H](c2ccccc2)C1` [Example 107, 1-(3-(4-fluorophenyl)-1-methyl-1H-pyrazol-5-yl)-3-((3S,4R)-1-(2-methoxy-ethyl)-4-phenylpyrrolidin-3-yl)urea] registered an IC50 below 0.1 µM.
`COCCN1C[C@@H](NC(=O)Nc2c(C)c(-c3nc(C)no3)nn2-c2ccccc2)[C@H](c2ccc(F)c(F)c2)C1` [Example 298, 1-((3S,4R)-4-(3,4-difluorophenyl)-1-(2-methoxyethyl)pyrrolidin-3-yl)-3-(4-methyl-3-(3-methyl-1,2,4-oxadiazol-5-yl)-1-phenyl-1H-pyrazol-5-yl)urea] had an IC50 below 0.1 µM.
The value for `COCCN1C[C@@H](NC(=O)Nc2c(C)c(OCC(CO)CO)nn2-c2ccccc2)[C@H](c2ccc(F)c(F)c2)C1` [Example 474, 1-((3S,4R)-4-(3,4-difluorophenyl)-1-(2-methoxyethyl)pyrrolidin-3-yl)-3-(3-(3-hydroxy-2-(hydroxymethyl)propoxy)-4-methyl-1-phenyl-1H-pyrazol-5-yl)urea] was below 0.1 µM; that for `COCCN1C[C@@H](NC(=O)Nc2c3ccccc3nn2-c2ccccc2)[C@H](c2ccc(F)c(F)c2)C1` [Example 390, 1-((3S,4R)-4-(3,4-difluorophenyl)-1-(2-methoxyethyl)pyrrolidin-3-yl)-3-(2-phenyl-2H-indazol-3-yl)urea] was below 0.1 µM.
Molecule `COCCN1C[C@@H](NC(=O)Nc2c(C)c(OCC(C)(C)O)nn2-c2ccccc2)[C@H](c2cc(F)c(F)c(F)c2)C1` [Example 401, 1-(3-(2-hydroxy-2-methylpropoxy)-4-methyl-1-phenyl-1H-pyrazol-5-yl)-3-((3S,4R)-1-(2-methoxyethyl)-4-(3,4,5-trifluorophenyl)pyrrolidin-3-yl)urea] had an IC50 below 0.1 µM.
The value for `COCCN1C[C@@H](NC(=O)Nc2cc(C(C)(C)C)nn2C2CCOCC2)[C@H](c2ccccc2)C1` [Example 34, 1-(3-tert-butyl-1-(tetrahyro-2H-pyran-4-yl)-1H-pyrazol-5-yl)-3-(trans-1-(2-methoxyethyl)-4-phenylpyrrolidin-3-yl)urea] was 1 to 10 µM; that for `COCCN1C[C@@H](NC(=O)Nc2cc(C(C)C)nn2-c2ccccc2)[C@H](c2ccccc2F)C1` (relative stereo) [Example 43, trans-1-(4-(2-fluorophenyl)-1-(2-methoxyethyl)pyrrolidin-3-yl)-3-(3-isopropyl-1-phenyl-1H-pyrazol-5-yl)urea] was 0.1 to 1 µM; that for `COCCN1C[C@@H](NC(=O)Nc2cc(C(C)(C)C)nn2-c2ccccc2F)[C@H](c2ccccc2)C1` (relative stereo) [Example 16, 1-(3-tert-butyl-1-(2-fluorophenyl)-1H-pyrazol-5-yl)-3-(trans-1-(2-methoxyethyl)-4-phenylpyrrolidin-3-yl)urea] was 1 to 10 µM.
The value for `COCCN1C[C@@H](NC(=O)Nc2cc(-c3ccccc3)nn2CCO)[C@H](c2ccc(F)c(F)c2)C1` [Example 122, 1-((3S,4R)-4-(3,4-difluorophenyl)-1-(2-methoxyethyl)pyrrolidin-3-yl)-3-(1-(2-hydroxy-ethyl)-3-phenyl-1H-pyrazol-5-yl)urea] was 0.1 to 1 µM.
The value for `COCCN1C[C@@H](NC(=O)Nc2c(C)c(OCC(=O)O)nn2-c2ccccc2)[C@H](c2ccc(F)c(F)c2)C1` [Example 540, 2-((5-(3-((3S,4R)-4-(3,4-difluorophenyl)-1-(2-methoxyethyl)pyrrolidin-3-yl)ureido)-4-methyl-1-phenyl-1H-pyrazol-3-yl)oxy)acetic acid] was below 0.1 µM; that for `CCOc1nn(-c2ccccc2)c(NC(=O)N[C@@H]2CN(CC(C)O)C[C@H]2c2ccc(F)c(F)c2)c1C` (stereo partly drawn) [Example 470, 1-((3S,4R)-4-(3,4-difluorophenyvl)-1-(2-hydroxypropyl)pyrrolidin-3-yl)-3-(3-ethoxy-4-methyl-1-phenyl-1H-pyrazol-5-yl)urea] was 0.1 to 1 µM; that for `COCC(CO)N1C[C@@H](NC(=O)Nc2c3c(nn2-c2ccccc2)CCC3)[C@H](c2ccc(F)c(F)c2)C1` (stereo partly drawn) [Example 260, 1-((3S,4R)-4-(3,4-difluorophenyl)-1-(1-hydroxy-3-methoxypropan-2-yl)pyrrolidin-3-yl)-3-(2-phenyl-2,4,5,6-tetrahydrocyclopenta[c]pyrazol-3-yl)urea] was below 0.1 µM.
`COCCN1C[C@@H](NC(=O)Nc2c(Br)c(C3CCN(S(C)(=O)=O)CC3)nn2-c2ccccc2)[C@H](c2ccc(F)c(F)c2)C1` [Example 592, 1-(4-bromo-3-(1-(methylsulfonyl)piperidin-4-yl)-1-phenyl-1H-pyrazol-5-yl)-3-((3S,4R)-4-(3,4-difluorophenyl)-1-(2-methoxyethyl)pyrrolidin-3-yl)urea]: the IC50 is below 0.1 µM.
The value for `COCCN1C[C@@H](NC(=O)Nc2cc(-c3ccccn3)nn2C)[C@H](c2cc(F)cc(F)c2)C1` [Example 56, 1-((3S,4R)-4-(3,5-difluorophenyl)-1-(2-methoxyethyl)pyrrolidin-3-yl)-3-(1-methyl-3-(pyridin-2-yl)-1H-pyrazol-5-yl)urea] was below 0.1 µM; that for `COCCN1C[C@@H](NC(=O)Nc2c(Cl)c(OCC(C)(C)O)nn2-c2ccccc2)[C@H](c2ccc(F)cc2)C1` [Example 371, 1-(4-chloro-3-(2-hydroxy-2-methylpropoxy)-1-phenyl-1H-pyrazol-5-yl)-3-((3S,4R)-4-(4-fluorophenyl)-1-(2-methoxyethyl)pyrrolidin-3-yl)urea] was below 0.1 µM.
The value for `COCCN1C[C@@H](NC(=O)Nc2c3c(nn2-c2ccccc2)COC3)[C@H](c2ccc(F)c(F)c2)C1` [Example 90, 1-((3S,4R)-4-(3,4-difluoro-phenyl)-1-(2-methoxyethyl)pyrrolidin-3-yl)-3-(2-phenyl-4,6-dihydro-2H-furo[3,4-c]pyrazol-3-yl) urea] was below 0.1 µM; that for `Cc1c(OC[C@H](O)CO)nn(-c2ccccc2)c1NC(=O)N[C@H]1CN(CC(F)(F)F)C[C@@H]1c1ccccc1` [Example 272, 1-(3-((R)-2,3-dihydroxvpropoxy)-4-methyl-1-phenyl-1H-pyrazol-5-yl)-3-((3R,4S)-4-phenyl-1-(2,2,2-trifluoroethyl)pyrrolidin-3-yl)urea] was below 0.1 µM.
The value for `COCCN1C[C@@H](NC(=O)Nc2c(C)c(-c3ccc(=O)n(C(C)C)c3)nn2-c2ccccc2)[C@H](c2ccc(F)cc2)C1` [Example 536, 1-((3S,4R)-4-(4-fluorophenyl)-1-(2-methoxyethyl)pyrrolidin-3-yl)-3-(3-(1-isopropyl-6-oxo-1,6-dihydropyridin-3-yl)-4-methyl-1-phenyl-1H-pyrazol-5-yl)urea] was below 0.1 µM.
